Tests used:
[1] = system: pAKT (p-Akt 1/2/3 (Ser473)) in MCF-7 cells; test: AlphaLISA Ultra pAKT assay; type: cell-based; details: Homo sapiens, MCF7, 2 hours compound incubation
Procedure, shortened: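 MCF-7 cells seeded 20-24 h, medium refreshed for 2 h, then treated with compounds for 2 h at 0.5% final DMSO. Lysates frozen at −80 °C, then pAKT detected by AlphaLISA with acceptor and donor beads, 2 h each.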

[2] = system: pS6K1 (p-p70 S6 Kinase (Thr389)) in MCF-7 cells; test: AlphaLISA Ultra pS6K1 assay; type: cell-based; details: Homo sapiens, MCF7, 2 h, 2 hours compound incubation
Procedure, shortened: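 MCF-7 cells seeded 20–24 h, medium refreshed 2 h, then treated 2 h with compound (0.5% DMSO final). Lysates probed for Thr389-phosphorylated p70 S6K by AlphaLISA Ultra, 2 h acceptor then 2 h donor bead incubation, read on a multimode reader.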

Row | SMILES | IC50 [1] | IC50 [2]
1 | Cc1cccc(N2CCN(C(=O)c3cc(NC4CCN(c5ccccc5C#N)CC4)c(C)cc3C)C[C@@H]2CO)n1 [I-101, (R)-2-(4-(5-(3-(Hydroxymethyl)-4-(6-methylpyridin-2-yl)piperazine-1-carbonyl)-2,4-dimethylphenylamino)piperidin-1-yl)benzonitrile] | > 10000 nM | 1000 to 3000 nM
2 | Cc1cc(C)c(C(=O)N2CCN(c3ccc(F)cc3S(N)(=O)=O)CC2)nc1NC1CCN(c2ccccc2C#N)CC1 [I-103, 2-(4-(6-(1-(2-cyanophenyl)piperidin-4-ylamino)-3,5-dimethylpicolinoyl)piperazin-1-yl)-5-fluorobenzenesulfonamide] | > 10000 nM | 1000 to 3000 nM
3 | Cc1cc(C)c(C(=O)N2CCN(c3cc(F)c(F)cc3S(N)(=O)=O)CC2)cc1NC1CCN(c2ccccc2C#N)CC1 [I-104, 2-(4-(5-(1-(2-Cyanophenyl)piperidin-4-ylamino)-2,4-dimethylbenzoyl)piperazin-1-yl)-4,5-difluorobenzenesulfonamide] | > 10000 nM | 10 to 1000 nM
4 | COc1cc(C)c(NC2CCN(c3ccccc3C#N)CC2)cc1C(=O)N1CCN(c2ccccc2S(N)(=O)=O)CC1 [I-105, 2-(4-(5-(1-(2-Cyanophenyl)piperidin-4-ylamino)-2-methoxy-4-methylbenzoyl)piperazin-1-yl)benzenesulfonamide] | > 10000 nM | 1000 to 3000 nM
5 | Cc1cc(C)c(C(=O)N2CCN(c3ccccc3S(N)(=O)=O)CC2)cc1NC1CCN(c2ccccc2C)CC1 [I-108, 2-(4-(2,4-Dimethyl-5-(1-o-tolylpiperidin-4-ylamino)benzoyl)piperazin-1-yl)benzenesulfonamide] | > 10000 nM | 1000 to 3000 nM
6 | N#Cc1ccccc1N1CCC(Nc2c(F)ccc(C(=O)N3CCN(c4ccccc4S(N)(=O)=O)CC3)c2F)CC1 [I-109, 2-(4-(3-(1-(2-cyanophenyl)piperidin-4-ylamino)-2,4-difluorobenzoyl)piperazin-1-yl)benzenesulfonamide] | > 10000 nM | 3000 to 5000 nM

More lines, now with the values ahead:

Row | IC50 [1] | IC50 [2] | SMILES
7 | > 10000 nM | 10 to 1000 nM | Cc1cc(C)c(C(=O)N2CCN(c3ccccc3[S@](C)(=N)=O)CC2)nc1NC1CCN(c2ccccc2C#N)CC1 [I-110, (R)-2-(4-(3,5-Dimethyl-6-(4-(2-(S-methylsulfonimidoyl)phenyl)piperazine-1-carbonyl)pyridin-2-ylamino)piperidin-1-yl)benzonitrile]
8 | > 10000 nM | 1000 to 3000 nM | Cc1cc(C)c(C(=O)N2CCN(c3ccccc3C)[C@@H](CO)C2)cc1NC1CCN(c2ccccc2C#N)CC1 [I-112, (R)-2-(4-(5-(3-(Hydroxymethyl)-4-o-tolylpiperazine-1-carbonyl)-2,4-dimethylphenylamino)piperidin-1-yl)benzonitrile]
9 | > 10000 nM | 3000 to 5000 nM | Cc1cc(F)c(C(=O)N2CCN(c3ccccc3S(N)(=O)=O)CC2)cc1NC1CCN(c2ccccc2C#N)CC1 [I-113, 2-(4-(5-(1-(2-Cyanophenyl)piperidin-4-ylamino)-2-fluoro-4-methylbenzoyl)piperazin-1-yl)benzenesulfonamide]
10 | > 10000 nM | > 10000 nM | Cc1cc(C)c(C(=O)N2CCN(C(C)C)[C@@H](CO)C2)cc1NC1CCN(c2ccccc2C#N)CC1 [I-114, (R)-2-(4-(5-(3-(Hydroxymethyl)-4-isopropylpiperazine-1-carbonyl)-2,4-dimethylphenylamino)piperidin-1-yl)benzonitrile]
11 | > 10000 nM | 1000 to 3000 nM | Cc1cc(C)c(C(=O)N2CCN(c3ncccc3F)[C@@H](CO)C2)cc1NC1CCN(c2ccccc2C#N)CC1 [I-115, (R)-2-(4-(5-(4-(3-Fluoropyridin-2-yl)-3-(hydroxymethyl)piperazine-1-carbonyl)-2,4-dimethylphenylamino)piperidin-1-yl)benzonitrile]
12 | > 10000 nM | 1000 to 3000 nM | Cc1cc(C)c(C(=O)N2CCN(c3ccc(F)cn3)[C@@H](CO)C2)cc1NC1CCN(c2ccccc2C#N)CC1 [I-116, (R)-2-(4-(5-(4-(5-Fluoropyridin-2-yl)-3-(hydroxymethyl)piperazine-1-carbonyl)-2,4-dimethylphenylamino)piperidin-1-yl)benzonitrile]
